According to paper doi:10.1101/2025.03.19.644003v1 (biorxiv, 2025):

Legend:
[1] = target: VHL:GEMIN3aa41-268 (VBC with purified GEMIN3aa41-268) (Homo sapiens, UniProt P40337+Q9UHI6); assay: SPR, immobilised GEMIN3aa41-268, pre-formed VBC:compound complex as analyte; format: binding
[2] = target: NanoLuc-VHL (Homo sapiens, UniProt P40337); assay: NanoBRET tracer displacement, live HEK293T cells; format: cell-based
[3] = target: VHL/EloB/EloC (VBC) (Homo sapiens, UniProt P40337); assay: SPR, immobilised His-tagged VBC; format: binding
Sequence of VHL/EloB/EloC (VBC) (Q15369 whole entry): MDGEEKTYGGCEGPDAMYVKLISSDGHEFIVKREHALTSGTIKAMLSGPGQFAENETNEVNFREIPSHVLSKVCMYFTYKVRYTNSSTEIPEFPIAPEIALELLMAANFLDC
Sequence of VHL/EloB/EloC (VBC) (Q15370 whole entry, further chain): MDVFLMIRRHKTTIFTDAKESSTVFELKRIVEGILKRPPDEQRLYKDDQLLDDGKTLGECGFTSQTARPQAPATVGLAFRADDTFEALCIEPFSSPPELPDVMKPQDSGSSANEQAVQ
Sequence of VHL/EloB/EloC (VBC) (P40337 whole entry): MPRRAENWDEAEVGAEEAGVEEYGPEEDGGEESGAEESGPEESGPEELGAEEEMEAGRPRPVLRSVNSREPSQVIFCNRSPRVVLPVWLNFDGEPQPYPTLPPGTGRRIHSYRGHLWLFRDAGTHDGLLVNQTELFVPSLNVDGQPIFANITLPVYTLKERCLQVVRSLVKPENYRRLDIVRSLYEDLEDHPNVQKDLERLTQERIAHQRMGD

Sequence of VHL:GEMIN3aa41-268 (VBC with purified GEMIN3aa41-268) (P40337 whole entry, the tested form may be a part): as the sequence (P40337 whole entry) above
Sequence of VHL:GEMIN3aa41-268 (VBC with purified GEMIN3aa41-268) (Q9UHI6 41-268): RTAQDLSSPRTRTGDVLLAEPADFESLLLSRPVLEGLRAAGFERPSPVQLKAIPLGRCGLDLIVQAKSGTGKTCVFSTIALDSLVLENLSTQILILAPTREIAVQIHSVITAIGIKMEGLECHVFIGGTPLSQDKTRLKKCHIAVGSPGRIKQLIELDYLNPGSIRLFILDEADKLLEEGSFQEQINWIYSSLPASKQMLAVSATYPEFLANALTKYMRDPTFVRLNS
Sequence of VHL:GEMIN3aa41-268 (VBC with purified GEMIN3aa41-268) (Q15369 whole entry, further chain, the tested form may be a part): as the sequence (Q15369 whole entry) above
Sequence of VHL:GEMIN3aa41-268 (VBC with purified GEMIN3aa41-268) (Q15370 whole entry, further chain, the tested form may be a part): as the sequence (Q15370 whole entry, further chain) above
Sequence of NanoLuc-VHL (P40337 whole entry): as the sequence (P40337 whole entry) above

Kd [1] | IC50 [2] | Kd [3] | SMILES
69 nM | 870 nM | 217 nM | CC(C)(C)[C@H](NC(=O)c1cnn2c1OCCC2)C(=O)N1C[C@H](O)C[C@H]1C(=O)NCc1ccc(-c2ccc(Cl)cc2Cl)cc1 [compound 1, N-((S)-1-((2S,4R)-2-(((2’,4’-dichloro-[1,1’-biphenyl]-4-yl)methyl)carbamoyl)-4-hydroxypyrrolidin-1-yl)-3,3-dimethyl-1-oxobutan-2-yl)-6,7-dihydro-5H-pyrazolo[5,1-b] [1,3] oxazine-3-carboxamide]
73 nM |  | 557 nM | CC(C)(C)[C@H](NC(=O)c1cnn2c1CCCC2)C(=O)N1C[C@H](O)C[C@H]1C(=O)NCc1ccc(-c2ccc(Cl)cc2Cl)cc1 [compound 3, N-((S)-1-((2S,4R)-2-(((2’,4’-dichloro-[1,1’-biphenyl]-4-yl)methyl)carbamoyl)-4-hydroxypyrrolidin-1-yl)-3,3-dimethyl-1-oxobutan-2-yl)-4,5,6,7-tetrahydropyrazolo[1,5-a]pyridine-3-carboxamide]
 |  | 74.3 nM | CC(C)(C)[C@H](NC(=O)c1cnn2c1OCCC2)C(=O)N1C[C@H](O)C[C@H]1C(=O)NCc1ccc(-c2ccccc2Cl)cc1 [compound 5, N-((S)-1-((2S,4R)-2-(((2’-chloro-[1,1’-biphenyl]-4-yl)methyl)carbamoyl)-4-hydroxypyrrolidin-1-yl)-3,3-dimethyl-1-oxobutan-2-yl)-6,7-dihydro-5H-pyrazolo[5,1-b][1,3]oxazine-3-carboxamide]
487 nM |  | 200 nM | CC(C)(C)[C@H](NC(=O)c1cnn2c1OCCC2)C(=O)N1C[C@H](O)C[C@H]1C(=O)NCc1ccc(-c2ccc(Cl)cc2)cc1 [compound 4, N-((S)-1-((2S,4R)-2-(((4’-chloro-[1,1’-biphenyl]-4-yl)methyl)carbamoyl)-4-hydroxypyrrolidin-1-yl)-3,3-dimethyl-1-oxobutan-2-yl)-6,7-dihydro-5H-pyrazolo[5,1-b][1,3]oxazine-3-carboxamide]
 |  | 170 nM | CC(C)(C)[C@H](NC(=O)c1cnn2c1OCCC2)C(=O)N1C[C@H](O)C[C@H]1C(=O)NCc1ccc(-c2ccccc2)cc1 [compound 6, N-((S)-1-((2S,4R)-2-(([1,1’-biphenyl]-4-ylmethyl)carbamoyl)-4-hydroxypyrrolidin-1-yl)-3,3-dimethyl-1-oxobutan-2-yl)-6,7-dihydro-5H-pyrazolo[5,1-b][1,3]oxazine-3-carboxamide]
